Test: not given
Settings: not given

Going from O=C1CN=C(c2ccc(Cl)cc2)c2cc(Br)ccc2N1 to O=C1CN=C(c2ccc(Br)cc2)c2cc(Br)ccc2N1, the logP rises from 3.78 to 4.08.

First: O=C1CN=C(c2ccccc2Br)c2cc(Br)ccc2N1
Second: O=C1CN=C(c2cccc(Cl)c2)c2ccc(Br)cc2N1
The logP of the first is lower: 3.3 for the first, 3.63 for the second.

Test: method code SF-AS, from DOI: 10.1016/0021-9673(94)89049-8
Settings: pH 7.0

Going from Nc1nc(Cl)nc2c1ncn2C1OC(CO)C(O)C1O (stereo unspecified) to Nc1nc(F)nc2c1ncn2[C@@H]1O[C@H](CO)[C@@H](O)[C@H]1O, the logD falls from -0.37 to -0.8.

Nc1nc(Cl)nc2c1ncn2[C@H]1C[C@H](O)[C@@H](CO)O1 and Nc1ncnc2c1ncn2[C@@H]1O[C@H](CCl)[C@@H](O)[C@H]1O are within 0.2 log units of each other in logD: 0.03 for the first, -0.06 for the second.

Test: method code SF-RC, from DOI: 10.1021/jm00238a003, PMID: 1120999
Settings: pH 7.0

Compared with CCCCCCCC(=O)OC[C@H]1O[C@@H](n2ccc(N)nc2=O)[C@@H](O)[C@@H]1O, CC(C)C(=O)OCC1OC(n2ccc(N)nc2=O)C(O)C1O (stereo unspecified) is lower in logD: 1.6 for the first, 0.3 for the second.

Going from CC(C)(C)C(=O)OC[C@H]1O[C@@H](n2ccc(N)nc2=O)[C@@H](O)[C@@H]1O to Nc1ccn(C2OC(COC(=O)C3CCCCC3)C(O)C2O)c(=O)n1 (stereo unspecified), the logD rises from 0.1 to 0.8.

Test: not given
Settings: pH 3.0

First: N#CC(C#N)=NNc1ccc(/N=N/c2ccccc2)cc1
Second: CC(=O)Nc1ccc(NN=C(C#N)C#N)cc1
The logD of the first is higher: 4.25 for the first, 1.83 for the second.

Compound N#CC(C#N)=NNc1ccc(OC(F)(F)F)cc1 has a logD of 3.68.

Same assay, conditions: pH 7.2

With N#CC(C#N)=NNc1ccc(CCCl)cc1 the logD was 2.44.

Test: not given
Settings: not given
Remark: another data set of the same source

Going from CC1(C)[C@H](C(=O)OCc2coc(Cc3ccccc3)c2)[C@@H]1/C=C1/CCSC1=O to COP(N)(=S)Oc1ccccc1C(=O)OC(C)C (stereo unspecified), the logP falls from 4.31 to 2.7.

Compared with CNC(=O)ON=C(CS(C)=O)C(C)(C)C (stereo unspecified), COc1ccc(C(OC(C)=O)C(Cl)(Cl)Cl)cc1 (stereo unspecified) is higher in logP: 2.75 for the first, 3.72 for the second.

Test: not given
Settings: not given
Remark: another data set of the same source

Going from CCCCNCc1ccccc1 to CCNCc1ccccc1, the logP falls from 2.59 to 1.82.

First: CC(C)NCc1ccccc1
Second: CC(N)CCc1ccccc1 (stereo unspecified)
The logP of the first is lower: 1.83 for the first, 2.12 for the second.

Test: not given
Settings: not given
Remark: another data set of the same source

First: CCCN1CCn2c(nc3ccccc3c2=O)C1C (stereo unspecified)
Second: CCCN1CC(C)n2c(nc3ccccc3c2=O)C1C (stereo unspecified)
The logP of the first is lower: 1.07 for the first, 1.45 for the second.

First: CCN1CC(C)n2c(nc3ccccc3c2=O)C1C (stereo unspecified)
Second: CC1c2nc3ccccc3c(=O)n2C(C)CN1C (stereo unspecified)
The logP of the first is higher: 1.58 for the first, 0.44 for the second.

Test: method code SF-AS, from PMID: 578762
Settings: pH 5.9

Compound CCOC(=O)C=C1NC(=O)C(N2CCCCC2)S1 (stereo in doubt) has a logD of 2.3.

Same assay, conditions: pH 7.4

Going from CCOC(=O)/C=C1\SC(N(CC)CC)C(=O)N1C (stereo unspecified) to CCCN1C(=O)C(N2CCCCC2)S/C1=C\C(=O)OCC (stereo unspecified), the logD rises from 2.2 to 2.93.

CCOC(=O)/C=C1/SC(N2CCCCC2)C(=O)N1CC (stereo unspecified) gave a logD of 2.65.

Test: method code SF-AS, from DOI: 10.1007/bf01648987
Settings: not given

Going from CC(=O)OC(OC(C)=O)c1ccccc1 to CCN(CCOC(C)=O)c1ccccc1, the logP rises from 1.62 to 2.04.

Compared with CC(=O)Oc1cccc2ccccc12, CC(=O)N(CCCl)c1ccc(CC(=O)O)cc1 is lower in logP: 2.78 for the first, 1.2 for the second.

Test: method code SF-AS, from DOI: 10.1135/cccc19881862
Settings: pH 3.5

First: CC(CC(=O)O)CC(=O)c1ccc(-c2ccc(-c3ccccc3)cc2)cc1 (stereo unspecified)
Second: CC(CC(=O)c1ccc(-c2ccc(-c3ccccc3)cc2)cc1)C(=O)O (stereo unspecified)
The logD of the first is higher: 3.82 for the first, 3.4 for the second.

CC(CC(=O)c1ccc(-c2ccc(-c3ccc(F)cc3F)cc2)cc1)C(=O)O (stereo unspecified) gave a logD of 3.78.

Test: not given
Settings: not given
Remark: another data set of the same source

Going from Clc1cccc(-c2cccc(Cl)c2Cl)c1 to Clc1cccc(-c2ccccc2Cl)c1, the logP falls from 5.57 to 5.02.

Going from Clc1ccc(-c2c(Cl)ccc(Cl)c2Cl)c(Cl)c1 to Clc1ccccc1-c1cccc(Cl)c1Cl, the logP falls from 6.31 to 5.31.

Test: method code SF, from PMID: 718082
Settings: not given

CC(=O)Nc1c(I)c(NC(C)=O)c(I)c(C(=O)O)c1I and CNC(=O)c1c(I)c(NC(C)=O)c(I)c(C(=O)O)c1I are within 0.2 log units of each other in logP: -1.05 for the first, -1.15 for the second.

Going from OC[C@H]1O[C@@H](Oc2cc(O[C@@H]3O[C@H](CO)[C@@H](O)[C@H](O)[C@H]3O)c(I)c(O[C@@H]3O[C@H](CO)[C@@H](O)[C@H](O)[C@H]3O)c2I)[C@H](O)[C@@H](O)[C@@H]1O to CNC(=O)c1c(I)c(NC(C)=O)c(I)c(OCC2OC(O)C(O)C(O)C2O)c1I (stereo unspecified), the logP rises from -2.22 to -1.26.

Test: method code SF-GLC, from DOI: 10.1016/0048-3575(76)90072-9
Settings: not given

Going from CCOC(=O)CN(C(=O)CCl)c1c(CC)cccc1CC to CCOC(=O)CN(C(=O)CCl)c1ccccc1CC, the logP falls from 3.17 to 2.57.

Going from CCOC(=O)CN(C(=O)CCl)c1ccccc1Cl to CCOC(=O)CN(C(=O)CCl)c1ccccc1OC, the logP falls from 2.3 to 1.78.

Test: method code SF, from DOI: 10.1016/0378-5173(86)90155-9
Settings: pH 7.0

CS(=O)(=O)CCCOc1ccc([N+](=O)[O-])cc1 and NS(=O)(=O)CCCOc1ccc([N+](=O)[O-])cc1 are within 0.2 log units of each other in logD: 1.1 for the first, 0.97 for the second.

Going from NC(=O)CCCCOC(=O)c1ccccc1 to CSCCCOc1ccc([N+](=O)[O-])cc1, the logD rises from 1.39 to 3.24.

Test: not given
Settings: not given
Remark: another data set of the same source

Compared with CN1CCc2cccc(Cl)c2CC1, C=CCN1CCc2cccc(Cl)c2CC1 is higher in logP: 2.92 for the first, 3.3 for the second.

Compared with NC(=O)NCCN1CCc2cccc(Cl)c2CC1, NC(=O)CCN1CCc2cccc(Cl)c2CC1 is lower in logP: 2.07 for the first, 1.64 for the second.

Test: not given
Settings: not given
Remark: another data set of the same source

Cc1nc(Cl)c(C#N)cc1-c1ccccc1 and COc1ccc(-c2cc(C#N)c(Cl)nc2C)cc1 are within 0.2 log units of each other in logP: 3.24 for the first, 3.38 for the second.

Compared with Cc1nc(N2CCOCC2)c(C#N)cc1-c1ccccc1, COc1ccc(-c2cc(C#N)c(N3CCOCC3)nc2C)cc1 is higher in logP: 3.65 for the first, 4.4 for the second.

Test: not given
Settings: not given
Remark: another data set of the same source

CC(=O)OC[C@H]1O[C@@H](n2ccnc2[N+](=O)[O-])[C@H](OC(C)=O)[C@@H](OC(C)=O)[C@@H]1OC(C)=O and CC(=O)OC[C@H]1S[C@@H](n2ccnc2[N+](=O)[O-])[C@H](OC(C)=O)[C@@H](OC(C)=O)[C@@H]1OC(C)=O are within 0.2 log units of each other in logP: 0.52 for the first, 0.63 for the second.

Compared with O=[N+]([O-])c1nccn1[C@@H]1S[C@H](CO)[C@@H](O)[C@H](O)[C@H]1O, O=[N+]([O-])c1nccn1[C@@H]1O[C@H](CO)[C@@H](O)[C@H](O)[C@H]1O is lower in logP: -0.66 for the first, -1.4 for the second.

Test: not given
Settings: not given
Remark: another data set of the same source

First: O=C(Oc1ccc(Cl)cc1)C1OC(O)C(O)C(O)C1O (stereo unspecified)
Second: O=C(Oc1ccc(F)cc1)C1OC(O)C(O)C(O)C1O (stereo unspecified)
The logP of the first is higher: 0.45 for the first, -0.42 for the second.

Compared with O=C(Oc1ccc([N+](=O)[O-])cc1)C1OC(O)C(O)C(O)C1O (stereo unspecified), O=C(Oc1ccc2ccccc2c1)C1OC(O)C(O)C(O)C1O (stereo unspecified) is higher in logP: -0.45 for the first, 1.39 for the second.

Test: method code SF-AS, from DOI: 10.1080/10826076.2011.619030
Settings: not given

First: O=C(OCc1ccccc1)OC1C(CO)OC(n2ccc(=O)[nH]c2=O)C1OC(=O)OCc1ccccc1 (stereo unspecified)
Second: CC1(C)OC2C(CO)OC(n3ccc(=O)n(Cc4ccccc4)c3=O)C2O1 (stereo unspecified)
The logP of the first is higher: 2.96 for the first, 1.82 for the second.

Compared with CC1(C)OC2C(CO)OC(n3ccc(=O)n(C(=O)c4ccccc4)c3=O)C2O1 (stereo unspecified), CC1(C)OC2C(CO)OC(n3ccc(=O)[nH]c3=O)C2O1 (stereo unspecified) is lower in logP: 0.95 for the first, -0.47 for the second.

Test: method code SF-HPLC, from DOI: 10.1016/j.bmcl.2010.02.057, PMID: 20231095
Settings: pH 7.4

CC(C)C(=O)OCOC(=O)c1sc2cc(O)c(O)cc2c1Cl and CC(OC(=O)c1sc2cc(O)c(O)cc2c1Cl)OC(=O)C(C)C (stereo unspecified) are within 0.2 log units of each other in logD: 2.91 for the first, 3.02 for the second.

First: CCCOC(=O)c1sc2cc(O)c(O)cc2c1Cl
Second: COC(=O)c1sc2cc(O)c(O)cc2c1Cl
The logD of the first is higher: 2.45 for the first, 1.51 for the second.

Test: method code SF-HPLC, from DOI: 10.1002/ps.2780310207
Settings: not given

Compared with CC(C)(Cc1ccccn1)c1ccc(F)cc1, CCCC(Cc1ccccn1)c1ccc(F)cc1 (stereo unspecified) is lower in logP: 2.97 for the first, 2.61 for the second.

First: Fc1ccc(C2(Cn3cncn3)CC2)cc1
Second: CCCC(Cn1cncn1)c1ccc(F)cc1 (stereo unspecified)
The logP of the first is lower: 1.54 for the first, 2.01 for the second.

Test: method code SF-HPLC, from DOI: 10.1023/a:1016462801968, PMID: 3334410
Settings: not given

First: Nc1nc2c(ncn2COC(CO)CO)c(=O)[nH]1
Second: COC(=O)OCC(COC(=O)OC)OCn1cnc2c(=O)[nH]c(N)nc21
The logP of the first is lower: -1.66 for the first, -0.88 for the second.

Going from CCCC(=O)OCC(COC(=O)CCC)OCn1cnc2c(=O)[nH]c(N)nc21 to CCC(=O)OCC(COC(=O)CC)OCn1cnc2c(=O)[nH]c(N)nc21, the logP falls from 0.83 to -0.14.

Test: not given
Settings: not given
Remark: another data set of the same source

First: c1ccc2nn(C34CC5CC(CC(C5)C3)C4)cc2c1
Second: c1ccc(C23CC4CC(CC(C4)C2)C3)cc1
The logP of the first is lower: 3.68 for the first, 5.55 for the second.

Going from c1nnn(C23CC4CC(CC(C4)C2)C3)n1 to c1ccc2c(c1)nnn2C12CC3CC1CCC2C3 (stereo unspecified), the logP rises from 2.95 to 3.52.

— the SangsterLogP compilation
